{
  "source": "patent US9374996B2",
  "about": "“Agroformulation comprising copolymer of acrylic acid, poly(alkylene glycol) (meth)acrylate, and alkyl (meth)acrylate” (priority 2012, dated 2016)",
  "origin": "cited, not measured here",
  "conditions": "at 20° C.",
  "data": [
    {"compound": "Cn1cc(C(=O)Nc2ccccc2-c2cc(F)c(F)c(F)c2)c(C(F)F)n1", "note": "[fluxapyroxad]", "values": [
      {"measurement": "solubility in water", "result": 3.88, "unit": "µg/mL"}
    ]}
  ]
}
